Among the data in patent publication US12624018B1, “Inhibitors of RIPK2 and medical uses thereof” (Odyssey Therapeutics, Inc., priority 2022, dated 2026) are IC50 values, retold here.

The structures appear in SMILES notation. Where only a bound is given, the exact number is not on record here.

Experiment [1] has as its system TNF-alpha secretion in human whole blood. Nature of the experiment: Inhibition of TNF-alpha secretion in human whole blood (IFN-gamma primed, L18-MDP stimulated). Format: cell-based. To be noted: Homo sapiens, 16 h, L18-MDP 100 ng/mL, read-out: Human Whole Blood TNFα IC50. How it is done:
Materials: Assay medium consisted of RPMI 1640 medium (catalogue number: 11875119) and 10% heat inactivated FBS (Cytvia). U-PLEX Biomarker Assay (cat #K15067L-4) to detect levels of TNF-alpha was purchased from Meso Scale Discovery. Heparinized whole blood from healthy donors/volunteers was obtained through Research Blood Components, LLC.
Test compounds were prepared into a 10 mM DMSO solution and serially diluted into 9 points using a 3-fold dilution in a 96 well plate. A 10× working stock solution of recombinant human IFN-gamma (final concentration of 10 ng/mL) was prepared in assay medium and used to prepare a 10× solution of test compound. 20 μL of 10×IFN-gamma and test compound (or DMSO control) was added to a 96-well plate. 160 μL of heparinized whole blood obtained from healthy donors was dispensed into individual wells of the 96-well plate and placed on a plate shaker (150 rpm) and incubated for 60 min at 37° C. in a CO2 incubator. Subsequently, 20 μL of L18-MDP (final concentration of 100 ng/mL) was added to the appropriate wells and further incubated for 16 hours on a plate shaker (150 rpm) at 37° C. in a CO2 incubator. The final concentration of DMSO was 0.05% (v/v) in all wells. After incubation, 100 μL of DPBS was added per well, mixed by shaking at 500 rpm for 2 minutes, followed by centrifugation (400×g for 10 minutes) and collection of supernatants. TNF-alpha in supernatants was measured using MSD immunoassay (MesoScale Discovery). 4-parametric curve fit was used to determine the test compound concentration that results in 50% reduction of TNF-alpha concentration in supernatant relative to assay controls.

The subject of a further experiment is human NOD2 signaling. Nature of the experiment: Inhibition of human NOD2 signaling in HEK-Blue-hNOD2 cells (L18-MDP stimulated, SEAP reporter). The format is cell-based. To be noted: Homo sapiens, HEK-Blue hNOD2, HEK-Blue-hNOD2 cells, NOD2 ligand stimulation, SEAP reporter; read-out: hNOD2 IC50. The procedure, abridged:
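HEK-Blue-hNOD2 cells (HEK293 with NOD2 and SEAP reporter), 12500/well, treated with 10-point 3-fold compound dilutions plus L18-MDP 0.5 ng/mL final, 24 h at 37 °C. Supernatant SEAP read with QUANTI-Blue after 3 h at 620 nm; IC50 by 4-parameter fit vs DMSO±L18-MDP controls.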

For experiment [2], the target named is T1, RIPK2 and XIAP protein-protein interaction (Homo sapiens, UniProt O43353).
T1 construct: the N-terminus of full-length RIPK2 was appended with the HaloTag fusion protein; expressed in transfected cells; host or cells: HEK293T
Description: Inhibition of the interaction of RIPK2 with XIAP (NanoBRET in HEK293T cells). The format is cell-based. The note with it: RIPK2 HaloTag / XIAP NanoLuc, read-out: NanoBRET Scaffolding IC50. The procedure, abridged:
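HEK293T cells transiently co-transfected with HaloTag-RIPK2 (N-terminal) and XIAP-NanoLuc (C-terminal) full-length fusions, grown 24 h at 37° C. in Opti-MEM with 4% FBS. Compounds tested as 10-point 3-fold dilutions; NanoBRET ratio taken as 618 nm acceptor over 460 nm donor emission.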
In general terms: Bioluminescence resonance energy transfer reports proximity on the nanometre scale.

Another experiment deals with T2, RIPK2 enzyme (Homo sapiens, UniProt O43353).
T2 construct: purchased Carna 09-128
Nature of the experiment: RIPK2 inhibition (ADP-Glo Kinase Assay). To be noted: RIPK2 5 nM, ATP 150 μM, MBP substrate, read-out: RIPK2 IC50. Format: biochemical. The procedure, abridged: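 Human RIPK2 (5 nM) preincubated with compound 30 min at room temperature in 50 mM HEPES pH 7.5, 10 mM MgCl2, 2 mM DTT, 1 mM EGTA, 0.01% Brij-35, 0.05% BSA; native swine MBP as substrate. ADP formed quantified by ADP-Glo luminescence; percent inhibition relative to DMSO and no-enzyme controls.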
(In general: ADP-Glo turns the ADP formed in a reaction into a luminescent signal.)

T1 sequence (O43353 whole entry, the tested form may be a part): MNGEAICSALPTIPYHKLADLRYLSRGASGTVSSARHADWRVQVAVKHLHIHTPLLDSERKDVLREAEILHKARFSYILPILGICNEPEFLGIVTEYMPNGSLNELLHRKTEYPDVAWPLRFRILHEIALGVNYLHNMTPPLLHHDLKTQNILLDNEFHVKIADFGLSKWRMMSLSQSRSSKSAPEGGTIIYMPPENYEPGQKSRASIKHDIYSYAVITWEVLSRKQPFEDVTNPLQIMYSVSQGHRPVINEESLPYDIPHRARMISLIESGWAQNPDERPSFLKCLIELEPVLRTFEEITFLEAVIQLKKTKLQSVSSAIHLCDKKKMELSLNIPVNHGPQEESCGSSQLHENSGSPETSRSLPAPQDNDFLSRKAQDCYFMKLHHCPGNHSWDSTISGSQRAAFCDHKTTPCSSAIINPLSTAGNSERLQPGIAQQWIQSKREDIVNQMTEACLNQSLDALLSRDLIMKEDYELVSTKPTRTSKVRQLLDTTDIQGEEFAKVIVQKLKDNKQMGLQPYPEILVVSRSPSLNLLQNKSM
T2 sequence (O43353 1-299 limits assumed): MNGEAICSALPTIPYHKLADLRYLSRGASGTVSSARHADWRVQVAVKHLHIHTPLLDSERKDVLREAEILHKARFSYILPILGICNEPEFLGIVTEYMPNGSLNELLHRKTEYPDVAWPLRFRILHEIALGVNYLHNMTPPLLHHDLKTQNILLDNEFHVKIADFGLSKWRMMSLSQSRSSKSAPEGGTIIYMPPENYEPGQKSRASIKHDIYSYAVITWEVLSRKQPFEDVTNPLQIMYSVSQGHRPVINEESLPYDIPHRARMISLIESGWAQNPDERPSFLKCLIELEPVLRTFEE

In the case of `[2H]C([2H])([2H])NC(=O)c1ccc2nccc(Oc3ccc(CC(=O)Nc4cnn(C56CC(C5)C6)c4)cc3C)c2c1` [Compound 559, 4-(4-(2-((1-(bicyclo[1.1.1]pentan-1-yl)-1H-pyrazol-4-yl)amino)-2-oxoethyl)-2-methylphenoxy)-N-(methyl-d3)quinoline-6-carboxamide], the IC50 in experiment [1] was 2 nM; in the experiment on human NOD2 signaling, 1 nM; in experiment [2] it was 95.8 nM; on RIPK2 enzyme it was under 2.5 nM.
